Reference: the Kinase Knowledgebase extract (Sharma et al. 2016)

Target: ROCK2 (human) (UniProt O75116)
Assay: Inhibition of ROCK2 Kinase Activity

Chain of ROCK2 (human) (O75116 whole entry, looked up): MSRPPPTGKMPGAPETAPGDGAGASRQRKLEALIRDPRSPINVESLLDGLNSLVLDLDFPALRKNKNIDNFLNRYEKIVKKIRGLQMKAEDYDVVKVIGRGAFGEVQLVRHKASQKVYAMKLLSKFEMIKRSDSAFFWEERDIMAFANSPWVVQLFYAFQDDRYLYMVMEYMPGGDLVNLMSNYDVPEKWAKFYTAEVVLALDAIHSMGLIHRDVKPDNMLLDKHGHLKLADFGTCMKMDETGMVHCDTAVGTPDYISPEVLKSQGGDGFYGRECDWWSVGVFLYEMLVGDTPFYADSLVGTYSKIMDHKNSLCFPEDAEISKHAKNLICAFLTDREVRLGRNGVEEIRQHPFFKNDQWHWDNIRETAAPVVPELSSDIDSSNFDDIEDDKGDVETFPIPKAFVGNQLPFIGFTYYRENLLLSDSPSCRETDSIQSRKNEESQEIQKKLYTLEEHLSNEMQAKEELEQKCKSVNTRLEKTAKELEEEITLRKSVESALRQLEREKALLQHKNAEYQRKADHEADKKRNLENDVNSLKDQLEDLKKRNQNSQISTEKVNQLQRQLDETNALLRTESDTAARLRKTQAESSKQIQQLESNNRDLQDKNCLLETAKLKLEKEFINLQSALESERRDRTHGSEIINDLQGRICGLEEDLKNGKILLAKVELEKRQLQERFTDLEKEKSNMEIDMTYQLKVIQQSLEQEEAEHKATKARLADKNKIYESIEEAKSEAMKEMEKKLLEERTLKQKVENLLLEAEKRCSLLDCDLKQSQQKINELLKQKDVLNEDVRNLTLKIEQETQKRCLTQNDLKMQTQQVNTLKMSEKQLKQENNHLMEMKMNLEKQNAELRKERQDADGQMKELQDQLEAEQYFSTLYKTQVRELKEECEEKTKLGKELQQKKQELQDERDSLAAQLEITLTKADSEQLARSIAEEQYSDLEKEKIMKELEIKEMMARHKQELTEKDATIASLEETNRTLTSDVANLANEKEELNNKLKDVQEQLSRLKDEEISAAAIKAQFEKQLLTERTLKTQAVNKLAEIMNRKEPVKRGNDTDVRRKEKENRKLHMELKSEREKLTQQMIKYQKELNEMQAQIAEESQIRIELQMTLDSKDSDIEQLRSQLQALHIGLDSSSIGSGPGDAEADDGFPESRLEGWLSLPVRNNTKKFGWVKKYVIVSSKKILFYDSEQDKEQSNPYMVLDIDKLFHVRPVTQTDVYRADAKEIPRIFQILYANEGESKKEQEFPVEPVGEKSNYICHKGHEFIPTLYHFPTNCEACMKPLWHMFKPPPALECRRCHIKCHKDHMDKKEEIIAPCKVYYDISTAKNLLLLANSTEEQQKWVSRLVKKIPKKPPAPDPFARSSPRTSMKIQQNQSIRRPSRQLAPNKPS

| Structure (SMILES) | IC50 [µM] |
| --- | --- |
| COc1ccc(NC(=O)NCc2nc(-c3ccncc3)n[nH]2)c(OC)c1 | > 5 |
| O=C(NCc1nc(-c2ccncc2)n[nH]1)c1cc(Cl)ccc1O | > 5 |
| CC(CC(=O)NCc1nc(-c2c[nH]c3ncccc23)n[nH]1)CC(C)(C)C (configuration not stated) | > 5 |
| O=C(NCc1nc(-c2c[nH]c3ncccc23)n[nH]1)c1ccc(F)cc1F | > 5 |
| COc1cccc(C(=O)NCc2nc(-c3c[nH]c4ncccc34)n[nH]2)c1OC | > 5 |
| COc1ccc(O)c(C(=O)NCc2nc(-c3ccncc3)n[nH]2)c1 | ≤ 5 |
| O=C(NCc1nc(-c2c[nH]c3ncccc23)n[nH]1)c1cc(O)ccc1O | > 5 |
| O=C(NCc1nc(-c2ccncc2)n[nH]1)c1nccs1 | ≤ 5 |
| O=C(NCc1nc(-c2c[nH]c3ncccc23)n[nH]1)c1c(Cl)cc(Cl)cc1Cl | > 5 |
| O=C(NCc1nc(-c2ccncc2)n[nH]1)c1ccc(Cl)c(Br)c1 | > 5 |
| O=C(NCc1nc(-c2c[nH]c3ncccc23)n[nH]1)c1ccc2ncccc2c1 | > 5 |
| COc1ccc(Cl)cc1C(=O)NCc1nc(-c2c[nH]c3ncccc23)n[nH]1 | > 5 |
| Cn1cnc(C(=O)NCc2nc(-c3c[nH]c4ncccc34)n[nH]2)c1 | > 5 |
| O=C(NCc1nc(-c2c[nH]c3ncccc23)n[nH]1)c1cccc(Oc2ccccc2)c1 | > 5 |
| CCC(C)C(NC(=O)OC(C)(C)C)C(=O)NCc1nc(-c2c[nH]c3ncccc23)n[nH]1 (configuration not stated) | > 5 |
| O=C(NCc1nc(-c2ccncc2)n[nH]1)c1ccccn1 | > 5 |
| O=C(NCc1nc(-c2ccncc2)n[nH]1)c1cncc(Br)c1 | > 5 |
| O=C(NCc1nc(-c2c[nH]c3ncccc23)n[nH]1)c1ccccn1 | > 5 |
| CC(=O)NC(Cc1ccc(O)cc1)C(=O)NCc1nc(-c2c[nH]c3ncccc23)n[nH]1 (configuration not stated) | > 5 |
| COc1ccc(C(=O)NCc2nc(-c3ccncc3)n[nH]2)c(OC)c1OC | > 5 |
| O=C(Cc1ccc(O)c(Cl)c1)NCc1nc(-c2ccncc2)n[nH]1 | > 5 |
| O=C(NCc1nc(-c2c[nH]c3ncccc23)n[nH]1)c1cccc(F)c1F | > 5 |

| Structure (SMILES) | IC50 [µM] |
| --- | --- |
| CC(=O)c1ccc(C(=O)NCc2nc(-c3c[nH]c4ncccc34)n[nH]2)cc1 | ≤ 5 |
| O=C(NCc1nc(-c2ccncc2)n[nH]1)c1ccc(I)cc1 | > 5 |
| COc1ccc(C(=O)NCc2nc(-c3c[nH]c4ncccc34)n[nH]2)c(O)c1 | > 5 |
| O=C(NCc1nc(-c2ccncc2)n[nH]1)c1ccc2cc(O)ccc2c1 | ≤ 5 |
| COc1ccccc1C=CC(=O)NCc1nc(-c2c[nH]c3ncccc23)n[nH]1 | > 5 |
| O=C(c1cccs1)N1CCCC1c1nc(-c2ccncc2)n[nH]1 (configuration not stated) | > 5 |
| CC(C)Oc1ccc(C(=O)NCc2nc(-c3c[nH]c4ncccc34)n[nH]2)cc1 | > 5 |
| Cc1ccc(F)cc1C(=O)NCc1nc(-c2c[nH]c3ncccc23)n[nH]1 | > 5 |
| O=Cc1ccccc1OCC(=O)NCc1nc(-c2c[nH]c3ncccc23)n[nH]1 | > 5 |
| O=C(NCc1nc(-c2c[nH]c3ncccc23)n[nH]1)c1ccc(F)c([N+](=O)[O-])c1 | > 5 |
| O=C(C=Cc1ccc2c(c1)OCO2)NCc1nc(-c2c[nH]c3ncccc23)n[nH]1 | > 5 |
| O=C(NCc1nc(-c2c[nH]c3ncccc23)n[nH]1)c1ccc2cc(O)ccc2c1 | > 5 |
| O=C(NCc1nc(-c2c[nH]c3ncccc23)n[nH]1)c1c(F)cccc1F | > 5 |
| CC(C)(C)c1ccc(C(=O)NCc2nc(-c3c[nH]c4ncccc34)n[nH]2)cc1 | > 5 |
| O=C(NCc1nc(-c2ccncc2)no1)c1cccs1 | > 5 |
| O=C(NCc1nc(-c2ccncc2)n[nH]1)c1ccc(C(F)(F)F)cc1[N+](=O)[O-] | > 5 |
| CC(C)c1cccc(C(=O)NCc2nc(-c3ccncc3)n[nH]2)c1O | ≤ 5 |
| Cc1cccc(C(=O)NCc2nc(-c3ccncc3)n[nH]2)c1 | > 5 |
| O=C(NCc1nc(-c2ccncc2)n[nH]1)c1cccc(Cl)c1[N+](=O)[O-] | ≤ 5 |
| COc1cc(Cl)ccc1C(=O)NCc1nc(-c2c[nH]c3ncccc23)n[nH]1 | > 5 |
| COc1cccc(OC)c1C(=O)NCc1nc(-c2ccncc2)n[nH]1 | > 5 |
| O=C(Cc1ccc(O)c(F)c1)NCc1nc(-c2ccncc2)n[nH]1 | > 5 |

| Structure (SMILES) | IC50 [µM] |
| --- | --- |
| O=C(Cc1ccc(O)c(F)c1)NCc1nc(-c2c[nH]c3ncccc23)n[nH]1 | > 5 |
| Cc1ccc(C(=O)CCC(=O)NCc2nc(-c3c[nH]c4ncccc34)n[nH]2)cc1 | > 5 |
| O=C(NCc1nc(-c2c[nH]c3ncccc23)n[nH]1)c1cccnc1Cl | > 5 |
| CC(C)(C)OC(=O)N1CCNC(C(=O)NCc2nc(-c3ccncc3)n[nH]2)C1 (configuration not stated) | > 5 |
| N#Cc1ccc(C(=O)NCc2nc(-c3ccncc3)n[nH]2)cc1 | > 5 |
| CN(Cc1nc(-c2ccncc2)n[nH]1)C(=O)c1ccc(O)cc1O | > 5 |
| CC(=O)c1cccc(C(=O)NCc2nc(-c3ccncc3)n[nH]2)c1 | > 5 |
| O=C(NCc1nc(-c2ccncc2)n[nH]1)c1ccncc1-c1ccccc1 | > 5 |
| COc1ccc(C(=O)NCc2nc(-c3c[nH]c4ncccc34)n[nH]2)cc1O | > 5 |
| N#Cc1cccc(C(=O)NCc2nc(-c3ccncc3)n[nH]2)c1 | > 5 |
| CC(C)C(C(=O)NCc1nc(-c2ccncc2)n[nH]1)N(C)C(=O)OC(C)(C)C (configuration not stated) | > 5 |
| CC(C)(C)OC(=O)NCC(=O)NCc1nc(-c2c[nH]c3ncccc23)n[nH]1 | > 5 |
| CCc1cccc(C(=O)NCc2nc(-c3ccncc3)n[nH]2)c1O | ≤ 5 |
| O=CC(=O)NCc1nc(-c2c[nH]c3ncccc23)n[nH]1 | > 5 |
| Clc1ccc(SCc2n[nH]c(-c3ccncc3)n2)cc1 | ≤ 5 |
| N#Cc1cccc(C(=O)NCc2nc(-c3c[nH]c4ncccc34)n[nH]2)c1 | > 5 |
| O=C(Cc1cccc(O)c1)NCc1nc(-c2c[nH]c3ncccc23)n[nH]1 | > 5 |
| Cc1cc(C)cc(C(=O)NCc2nc(-c3ccncc3)n[nH]2)c1 | > 5 |
| CC(C)(C)C(=O)Oc1ccc(C(=O)NCc2nc(-c3ccncc3)n[nH]2)c(O)c1 | > 5 |
| O=C(NCc1nc(-c2c[nH]c3ncccc23)n[nH]1)c1ccccc1C(=O)c1ccc(O)cc1 | > 5 |
| O=C(NCc1cc(-c2ccncc2)n[nH]1)c1ccc(O)cc1O | ≤ 5 |
| CC(C)(C)OC(=O)N1CCCC1C(=O)NCc1nc(-c2ccncc2)n[nH]1 (configuration not stated) | > 5 |

| Structure (SMILES) | IC50 [µM] |
| --- | --- |
| CC(C)(C)c1ccc(C(=O)NCc2nc(-c3ccncc3)n[nH]2)cc1 | > 5 |
| O=C(NCc1nc(-c2ccncc2)n[nH]1)c1ccc(Cl)cc1Cl | > 5 |
| O=C(NCc1nc(-c2ccncc2)n[nH]1)c1cc([N+](=O)[O-])ccc1O | > 5 |
| O=C(NCc1nc(-c2c[nH]c3ncccc23)n[nH]1)c1ccccc1-c1ccccc1 | > 5 |
| Cc1cccc(C(=O)NCc2nc(-c3c[nH]c4ncccc34)n[nH]2)c1 | > 5 |
| O=C(NCc1nc(-c2c[nH]c3ncccc23)n[nH]1)c1ccc([N+](=O)[O-])cc1Cl | > 5 |
| O=C(NCc1nc(-c2c[nH]c3ncccc23)n[nH]1)c1cc(F)c(F)c(O)c1F | > 5 |
| COc1ccccc1C=CC(=O)NCc1nc(-c2ccncc2)n[nH]1 | > 5 |
| O=C(NCc1nc(-c2ccncc2)n[nH]1)c1cc(O)ccc1[N+](=O)[O-] | > 5 |
| CCOC(=O)CC(=O)NCc1nc(-c2c[nH]c3ncccc23)n[nH]1 | > 5 |
| CCCOc1ccc(C(=O)NCc2nc(-c3c[nH]c4ncccc34)n[nH]2)cc1 | > 5 |
| Cc1cccc(C(=O)NCc2c[nH]c(-c3ccncc3)n2)c1O | > 5 |
| O=C(NCc1nc(-c2ccncc2)c[nH]1)c1cccs1 | ≤ 5 |
| COc1cc(OC)cc(C(=O)NCc2nc(-c3c[nH]c4ncccc34)n[nH]2)c1 | > 5 |
| O=C(NCc1nc(-c2ccncc2)n[nH]1)c1cscn1 | > 5 |
| O=C(NCc1nc(-c2ccncc2)n[nH]1)c1ccccc1C(F)(F)F | > 5 |
| Cc1ccc(O)c(C(=O)NCc2nc(-c3c[nH]c4ncccc34)n[nH]2)c1 | > 5 |
| O=C(NCc1c[nH]c(-c2ccncc2)n1)c1cccs1 | > 5 |
| CC(C(=O)NCc1nc(-c2c[nH]c3ncccc23)n[nH]1)c1ccc(O)cc1 (configuration not stated) | > 5 |
| O=C(NCc1nc(-c2ccncc2)n[nH]1)c1cccs1 | ≤ 5 |
| COc1cccc(C(=O)NCc2nc(-c3ccncc3)n[nH]2)c1OC | > 5 |
| O=C(Cc1c(F)cccc1F)NCc1nc(-c2c[nH]c3ncccc23)n[nH]1 | > 5 |

| Structure (SMILES) | IC50 [µM] |
| --- | --- |
| CCCCOc1ccc(C(=O)NCc2nc(-c3ccncc3)n[nH]2)cc1 | > 5 |
| O=C(NCc1nc(-c2c[nH]c3ncccc23)n[nH]1)c1cnc(O)c(Cl)c1 | > 5 |
| COc1ccc(Cl)cc1C(=O)NCc1nc(-c2ccncc2)n[nH]1 | > 5 |
| COc1cc(C=CC(=O)NCc2nc(-c3c[nH]c4ncccc34)n[nH]2)ccc1O | > 5 |
| O=C(NCc1nc(-c2c[nH]c3ncccc23)n[nH]1)c1ccccc1C(F)(F)F | > 5 |
| O=C(NCc1nc(-c2ccncc2)n[nH]1)c1cccc(Cl)c1O | ≤ 5 |
| Cc1cccc(CCC(=O)NCc2nc(-c3c[nH]c4ncccc34)n[nH]2)c1 | > 5 |
| O=C(O)c1ccc(C(=O)NCc2nc(-c3ccncc3)n[nH]2)cc1 | ≤ 5 |
| COc1ccc(C(=O)NCc2nc(-c3c[nH]c4ncccc34)n[nH]2)c(OC)c1OC | > 5 |
| N#Cc1ccc(C(=O)NCc2nc(-c3c[nH]c4ncccc34)n[nH]2)cc1 | > 5 |
| COc1cc(C(=O)NCc2nc(-c3ccncc3)n[nH]2)cc(Cl)n1 | > 5 |
| O=C(NCc1nc(-c2c[nH]c3ncccc23)n[nH]1)c1cc(Cl)ccc1[N+](=O)[O-] | > 5 |
| O=C(NCc1nc(-c2ccncc2)n[nH]1)C(Cl)(Cl)Cl | > 5 |
| O=C(CCc1cccc(Br)c1)NCc1nc(-c2c[nH]c3ncccc23)n[nH]1 | > 5 |
| O=C(NCc1nc(-c2ccncc2)n[nH]1)c1ccc([N+](=O)[O-])c(O)c1 | ≤ 5 |
| COc1cccc(O)c1C(=O)NCc1nc(-c2c[nH]c3ncccc23)n[nH]1 | > 5 |
| CS(=O)(=O)Nc1cccc(C(=O)NCc2nc(-c3c[nH]c4ncccc34)n[nH]2)c1 | ≤ 5 |
| O=C(NCc1nc(-c2c[nH]c3ncccc23)n[nH]1)c1cc(Cl)ccc1O | > 5 |
| O=C(NCc1nc(-c2c[nH]c3ncccc23)cs1)c1cccs1 | ≤ 5 |
